# Key:
# Type in all cases: cell-based
# [1] = molecular target: T1, RARα (Homo sapiens, UniProt P10276); assay: Co-transfection assay, RARα agonist activity; details: CV-1 cells, 40 hours; read-out: RARα Pot (potency, EC50)
# T1 construct: expressed in transfected cells; host or cells: CV-1 (African green monkey kidney fibroblasts)
# T1 sequence (P10276 1-462): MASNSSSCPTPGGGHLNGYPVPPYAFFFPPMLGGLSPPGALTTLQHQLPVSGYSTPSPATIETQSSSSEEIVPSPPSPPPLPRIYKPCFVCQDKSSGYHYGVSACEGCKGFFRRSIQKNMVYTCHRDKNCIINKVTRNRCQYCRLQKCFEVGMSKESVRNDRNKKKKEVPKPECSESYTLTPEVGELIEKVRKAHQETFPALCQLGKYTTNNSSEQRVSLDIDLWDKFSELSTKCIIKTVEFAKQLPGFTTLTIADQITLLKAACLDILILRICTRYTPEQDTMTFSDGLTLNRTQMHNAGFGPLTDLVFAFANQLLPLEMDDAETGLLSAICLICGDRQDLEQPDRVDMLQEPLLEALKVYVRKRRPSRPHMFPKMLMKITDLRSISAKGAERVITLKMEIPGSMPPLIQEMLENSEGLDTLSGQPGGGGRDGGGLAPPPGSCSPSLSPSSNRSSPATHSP
# [2] = molecular target: T2, RXRβ (Mus musculus, UniProt P28704); assay: Co-transfection assay, RXRβ agonist activity; details: CV-1 cells, 40 hours; read-out: RXRβ Pot (potency, EC50)
# T2 construct: expressed in transfected cells; host or cells: CV-1 (African green monkey kidney fibroblasts)
# T2 sequence (P28704 1-520): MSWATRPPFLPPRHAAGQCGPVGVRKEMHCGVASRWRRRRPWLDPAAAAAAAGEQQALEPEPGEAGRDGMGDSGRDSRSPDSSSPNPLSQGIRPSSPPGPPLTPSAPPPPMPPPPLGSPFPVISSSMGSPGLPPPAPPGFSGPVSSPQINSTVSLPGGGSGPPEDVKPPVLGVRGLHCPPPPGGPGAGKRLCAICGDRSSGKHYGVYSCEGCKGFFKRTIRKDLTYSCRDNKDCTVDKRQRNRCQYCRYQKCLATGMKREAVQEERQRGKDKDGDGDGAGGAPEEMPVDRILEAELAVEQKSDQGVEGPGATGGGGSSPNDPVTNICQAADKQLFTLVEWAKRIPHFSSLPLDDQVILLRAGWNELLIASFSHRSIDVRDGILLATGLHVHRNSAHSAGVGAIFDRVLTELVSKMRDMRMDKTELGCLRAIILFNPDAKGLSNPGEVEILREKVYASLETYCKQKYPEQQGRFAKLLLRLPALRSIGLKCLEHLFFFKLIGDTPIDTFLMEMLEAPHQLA
# [3] = molecular target: T3, RXRγ (Mus musculus, UniProt P28705); assay: Co-transfection assay, RXRγ agonist activity; details: CV-1 cells, 40 hours; read-out: RXRγ Pot (potency, EC50)
# T3 construct: expressed in transfected cells; host or cells: CV-1 (African green monkey kidney fibroblasts)
# T3 sequence (P28705 1-463): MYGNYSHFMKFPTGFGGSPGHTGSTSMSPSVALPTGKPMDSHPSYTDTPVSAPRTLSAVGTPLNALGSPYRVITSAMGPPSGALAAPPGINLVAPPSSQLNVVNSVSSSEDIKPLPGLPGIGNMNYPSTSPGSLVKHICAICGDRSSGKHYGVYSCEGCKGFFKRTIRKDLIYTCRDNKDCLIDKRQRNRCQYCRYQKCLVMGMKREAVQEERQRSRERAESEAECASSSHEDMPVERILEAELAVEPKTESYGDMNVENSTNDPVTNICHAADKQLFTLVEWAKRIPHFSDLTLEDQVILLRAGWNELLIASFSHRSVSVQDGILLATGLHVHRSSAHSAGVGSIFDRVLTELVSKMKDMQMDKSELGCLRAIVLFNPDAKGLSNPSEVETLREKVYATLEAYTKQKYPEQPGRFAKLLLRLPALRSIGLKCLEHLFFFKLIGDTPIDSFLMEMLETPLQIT
smiles,measurement,setting,value
"CC(/C=C/C=C1/CC(C)(C)Oc2cc3c(cc21)C(C)(C)CCC3(C)C)=C\C(=O)O [Compound 104b, (2E,4E)-3-Methyl-6-(2,3,6,7,8,9-hexahydro-2,2,6,6,9,9-hexamethylbenzo[b]-chromen-4-ylidene)-hexa-2,4-dienoic acid]",EC50,[1],> 10 µM
same,EC50,[2],0.02 µM
same,EC50,[3],0.011 µM
